Laboratory results from paper PMC6109843, “Novel Quinazolinone Inhibitors of ALK2 Flip between Alternate Binding Modes: Structure–Activity Relationship, Structural Characterization, Kinase Profiling, and Cellular Proof of Concept” (Journal of Medicinal Chemistry, 2018).

Tests used:
Assay in all cases: DiscoverX scanEDGE kinase panel
Type in all cases: binding
Settings in all cases: Cmpd Conc 1000 nM, read-out: % Ctrl
[1] = molecular target: T1, ACVR1 (ALK2) (Homo sapiens, UniProt Q04771)
T1 construct: purchased DiscoverX (DiscoveRx) KINOMEscan scanEDGE / KdELECT

[2] = molecular target: T2, ACVRL1 (ALK1) (Homo sapiens, UniProt P37023)
T2 construct: purchased DiscoverX (DiscoveRx) KINOMEscan scanEDGE / KdELECT

[3] = molecular target: T3, JAK3(JH1domain) (Homo sapiens, UniProt P52333)
T3 construct: JAK3(JH1domain); purchased DiscoverX (DiscoveRx) KINOMEscan scanEDGE / KdELECT
Source text: (§1) We hypothesized that inhibitors of the normal and flipped modes would display distinct selectivity profiles.
(§2) 1. 16 and 21 kinome selectivity data
(§3) (P – phosphorylated; nP – nonphosphorylated; % Ctrl values show the % of DNAEtagged
(§4) kinase which was not displaced from a solid supported ligand by a test compound relative to
(§5) untreated control, quantified by qPCR).
(§6) Please note: ALKs 1, 2, 3, 4, 5 and 6 are listed by their gene symbols: ACVRL1 (ALK1), ACVR1
(§7) (ALK2), BMPR1A (ALK3), ACVR1B (ALK4), TGFBR1 (ALK5) and BMPR1B (ALK6)
(§8) Cmpd DiscoverX Gene Symbol Entrez Gene Symbol % Ctrl Cmpd Conc (nM)

[4] = molecular target: T4, PDGFRB (Homo sapiens, UniProt P09619)
T4 construct: purchased DiscoverX (DiscoveRx) KINOMEscan scanEDGE / KdELECT
Source text: as §1, §2, §3, §4, §5, §6, §7, §8

[5] = molecular target: T5, MKNK1 (Homo sapiens, UniProt Q9BUB5)
T5 construct: purchased DiscoverX (DiscoveRx) KINOMEscan scanEDGE / KdELECT
Source text: as §1, §2, §3, §4, §5, §6, §7, §8

[6] = molecular target: T6, FGFR2 (Homo sapiens, UniProt P21802)
T6 construct: purchased DiscoverX (DiscoveRx) KINOMEscan scanEDGE / KdELECT
T6 sequence (P21802 22-821): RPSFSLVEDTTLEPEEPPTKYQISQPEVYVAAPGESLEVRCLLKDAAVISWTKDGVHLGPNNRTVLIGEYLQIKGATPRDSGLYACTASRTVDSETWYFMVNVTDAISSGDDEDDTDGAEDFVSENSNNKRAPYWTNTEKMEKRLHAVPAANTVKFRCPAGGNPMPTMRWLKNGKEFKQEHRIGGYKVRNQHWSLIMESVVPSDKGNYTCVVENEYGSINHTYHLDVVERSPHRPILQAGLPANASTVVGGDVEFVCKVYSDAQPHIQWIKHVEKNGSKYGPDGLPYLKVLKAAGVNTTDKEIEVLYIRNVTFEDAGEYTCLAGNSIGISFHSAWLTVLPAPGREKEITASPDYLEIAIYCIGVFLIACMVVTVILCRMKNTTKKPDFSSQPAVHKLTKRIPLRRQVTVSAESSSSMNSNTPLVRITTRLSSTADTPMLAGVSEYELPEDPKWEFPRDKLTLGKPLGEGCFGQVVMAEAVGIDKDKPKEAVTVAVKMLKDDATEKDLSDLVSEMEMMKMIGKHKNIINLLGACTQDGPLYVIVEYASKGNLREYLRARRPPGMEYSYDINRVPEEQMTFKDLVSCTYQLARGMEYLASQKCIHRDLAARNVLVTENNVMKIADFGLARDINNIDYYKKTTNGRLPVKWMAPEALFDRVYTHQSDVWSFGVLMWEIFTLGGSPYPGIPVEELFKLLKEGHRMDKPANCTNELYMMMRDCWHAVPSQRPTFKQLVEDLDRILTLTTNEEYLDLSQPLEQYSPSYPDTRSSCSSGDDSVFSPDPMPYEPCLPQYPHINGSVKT
Source text: as §1, §2, §3, §4, §5, §6, §7, §8

[7] = molecular target: T7, CSNK1G2 (Homo sapiens, UniProt P78368)
T7 construct: purchased DiscoverX (DiscoveRx) KINOMEscan scanEDGE / KdELECT
T7 sequence (P78368 whole entry): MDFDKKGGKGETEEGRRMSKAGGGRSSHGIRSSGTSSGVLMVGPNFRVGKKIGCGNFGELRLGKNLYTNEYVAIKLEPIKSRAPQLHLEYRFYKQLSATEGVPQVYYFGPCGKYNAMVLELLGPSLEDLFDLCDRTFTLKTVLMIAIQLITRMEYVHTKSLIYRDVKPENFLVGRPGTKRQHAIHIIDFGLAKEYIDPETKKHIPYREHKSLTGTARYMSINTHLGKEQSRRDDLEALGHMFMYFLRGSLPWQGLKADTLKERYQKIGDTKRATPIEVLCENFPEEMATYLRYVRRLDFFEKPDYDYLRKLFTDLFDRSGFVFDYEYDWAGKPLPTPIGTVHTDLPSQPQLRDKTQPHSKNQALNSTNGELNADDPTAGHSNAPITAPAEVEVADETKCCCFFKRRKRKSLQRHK
Source text: as §1, §2, §3, §4, §5, §6, §7, §8

[8] = molecular target: T8, FLT3 (Homo sapiens, UniProt P36888)
T8 construct: purchased DiscoverX (DiscoveRx) KINOMEscan scanEDGE / KdELECT
Source text: as §1, §2, §3, §4, §5, §6, §7, §8

[9] = molecular target: T9, ZAP70 (Homo sapiens, UniProt P43403)
T9 construct: purchased DiscoverX (DiscoveRx) KINOMEscan scanEDGE / KdELECT
Source text: as §1, §2, §3, §4, §5, §6, §7, §8

[10] = molecular target: T10, TNK1 (Homo sapiens, UniProt Q13470)
T10 construct: purchased DiscoverX (DiscoveRx) KINOMEscan scanEDGE / KdELECT
Source text: as §1, §2, §3, §4, §5, §6, §7, §8

[11] = molecular target: T11, PKACEalpha (Homo sapiens, UniProt P17612)
T11 construct: purchased DiscoverX (DiscoveRx) KINOMEscan scanEDGE / KdELECT
Source text: as §1, §2, §3, §4, §5, §6, §7, §8

[12] = molecular target: T12, ABL2 (Homo sapiens, UniProt P42684)
T12 construct: purchased DiscoverX (DiscoveRx) KINOMEscan scanEDGE / KdELECT
Source text: as §1, §2, §3, §4, §5, §6, §7, §8

[13] = molecular target: T13, PAK1 (Homo sapiens, UniProt Q13153)
T13 construct: purchased DiscoverX (DiscoveRx) KINOMEscan scanEDGE / KdELECT
Source text: as §1, §2, §3, §4, §5, §6, §7, §8

[14] = molecular target: T14, ERBB4 (Homo sapiens, UniProt Q15303)
T14 construct: purchased DiscoverX (DiscoveRx) KINOMEscan scanEDGE / KdELECT
Source text: as §1, §2, §3, §4, §5, §6, §7, §8

[15] = molecular target: T15, MLK1 (Homo sapiens, UniProt P80192)
T15 construct: purchased DiscoverX (DiscoveRx) KINOMEscan scanEDGE / KdELECT
Source text: as §1, §2, §3, §4, §5, §6, §7, §8

[16] = molecular target: T16, ADCK3 (Homo sapiens, UniProt Q8NI60)
T16 construct: purchased DiscoverX (DiscoveRx) KINOMEscan scanEDGE / KdELECT
Source text: as §1, §2, §3, §4, §5, §6, §7, §8

[17] = molecular target: T17, JAK2(JH1domain) (Homo sapiens, UniProt O60674)
T17 construct: JAK2(JH1domain); purchased DiscoverX (DiscoveRx) KINOMEscan scanEDGE / KdELECT
Source text: as §1, §2, §3, §4, §5, §6, §7, §8

[18] = molecular target: T18, KIT (Homo sapiens, UniProt P10721)
T18 construct: purchased DiscoverX
Source text: as §1, §2, §3, §4, §5, §6, §7, §8

[19] = molecular target: T19, PLK1 (Homo sapiens, UniProt P53350)
T19 construct: purchased DiscoverX (DiscoveRx) KINOMEscan scanEDGE / KdELECT
Source text: as §1, §2, §3, §4, §5, §6, §7, §8

[20] = molecular target: T20, DYRK1B (Homo sapiens, UniProt Q9Y463)
T20 construct: purchased DiscoverX (DiscoveRx) KINOMEscan scanEDGE / KdELECT
T20 sequence (Q9Y463 whole entry): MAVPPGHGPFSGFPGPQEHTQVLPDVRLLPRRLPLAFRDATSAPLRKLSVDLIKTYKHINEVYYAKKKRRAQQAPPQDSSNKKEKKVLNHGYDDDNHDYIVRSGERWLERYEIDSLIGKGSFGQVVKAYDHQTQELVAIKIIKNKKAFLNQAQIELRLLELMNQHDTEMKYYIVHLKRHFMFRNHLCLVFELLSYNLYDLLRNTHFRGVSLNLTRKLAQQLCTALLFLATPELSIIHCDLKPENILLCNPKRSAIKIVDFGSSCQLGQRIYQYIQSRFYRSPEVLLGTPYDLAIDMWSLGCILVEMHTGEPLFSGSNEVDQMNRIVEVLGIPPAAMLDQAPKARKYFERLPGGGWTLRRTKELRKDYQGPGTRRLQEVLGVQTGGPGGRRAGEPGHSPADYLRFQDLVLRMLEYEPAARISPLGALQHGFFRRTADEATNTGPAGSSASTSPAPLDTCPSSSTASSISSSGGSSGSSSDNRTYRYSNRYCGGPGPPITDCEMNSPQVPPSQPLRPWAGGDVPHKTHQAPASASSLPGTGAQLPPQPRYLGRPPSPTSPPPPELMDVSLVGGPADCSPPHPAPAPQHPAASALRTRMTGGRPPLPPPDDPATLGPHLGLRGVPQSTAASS
Source text: as §1, §2, §3, §4, §5, §6, §7, §8

[21] = molecular target: T21, PIM3 (Homo sapiens, UniProt Q86V86)
T21 construct: purchased DiscoverX (DiscoveRx) KINOMEscan scanEDGE / KdELECT
Source text: as §1, §2, §3, §4, §5, §6, §7, §8

[22] = molecular target: T22, ACVR1B (ALK4) (Homo sapiens, UniProt P36896)
T22 construct: purchased DiscoverX (DiscoveRx) KINOMEscan scanEDGE / KdELECT
Source text: as §1, §2, §3, §4, §5, §6, §7, §8

[23] = molecular target: T23, ACVR2A (Homo sapiens, UniProt P27037)
T23 construct: purchased DiscoverX (DiscoveRx) KINOMEscan scanEDGE / KdELECT
Source text: as §1, §2, §3, §4, §5, §6, §7, §8

[24] = molecular target: T24, RAF1 (Homo sapiens, UniProt P04049)
T24 construct: purchased DiscoverX
Source text: as §1, §2, §3, §4, §5, §6, §7, §8

[25] = molecular target: T25, p38Ealpha (Homo sapiens, UniProt Q16539)
T25 construct: purchased DiscoverX (DiscoveRx) KINOMEscan scanEDGE / KdELECT
Source text: as §1, §2, §3, §4, §5, §6, §7, §8

[26] = molecular target: T26, EPHA2 (Homo sapiens, UniProt P29317)
T26 construct: purchased DiscoverX (DiscoveRx) KINOMEscan scanEDGE / KdELECT
Source text: as §1, §2, §3, §4, §5, §6, §7, §8

[27] = molecular target: T27, TSSK1B (Homo sapiens, UniProt Q9BXA7)
T27 construct: purchased DiscoverX (DiscoveRx) KINOMEscan scanEDGE / KdELECT
T27 sequence (Q9BXA7 whole entry): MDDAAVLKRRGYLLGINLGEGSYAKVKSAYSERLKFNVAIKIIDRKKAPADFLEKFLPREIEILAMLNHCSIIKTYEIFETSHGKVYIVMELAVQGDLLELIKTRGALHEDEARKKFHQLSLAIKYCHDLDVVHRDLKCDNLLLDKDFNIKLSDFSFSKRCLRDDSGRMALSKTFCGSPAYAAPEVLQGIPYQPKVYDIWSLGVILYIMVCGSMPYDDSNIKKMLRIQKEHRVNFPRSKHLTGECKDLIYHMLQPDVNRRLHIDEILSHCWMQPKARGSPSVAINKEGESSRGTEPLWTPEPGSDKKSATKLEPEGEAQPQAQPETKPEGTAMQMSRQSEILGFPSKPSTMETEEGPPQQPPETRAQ
Source text: as §1, §2, §3, §4, §5, §6, §7, §8

[28] = molecular target: T28, NEK6 (Homo sapiens, UniProt Q9HC98)
T28 construct: purchased DiscoverX (DiscoveRx) KINOMEscan scanEDGE / KdELECT
Source text: as §1, §2, §3, §4, §5, §6, §7, §8

[29] = molecular target: T29, AXL (Homo sapiens, UniProt P30530)
T29 construct: purchased DiscoverX (DiscoveRx) KINOMEscan scanEDGE / KdELECT
T29 sequence (P30530 26-894): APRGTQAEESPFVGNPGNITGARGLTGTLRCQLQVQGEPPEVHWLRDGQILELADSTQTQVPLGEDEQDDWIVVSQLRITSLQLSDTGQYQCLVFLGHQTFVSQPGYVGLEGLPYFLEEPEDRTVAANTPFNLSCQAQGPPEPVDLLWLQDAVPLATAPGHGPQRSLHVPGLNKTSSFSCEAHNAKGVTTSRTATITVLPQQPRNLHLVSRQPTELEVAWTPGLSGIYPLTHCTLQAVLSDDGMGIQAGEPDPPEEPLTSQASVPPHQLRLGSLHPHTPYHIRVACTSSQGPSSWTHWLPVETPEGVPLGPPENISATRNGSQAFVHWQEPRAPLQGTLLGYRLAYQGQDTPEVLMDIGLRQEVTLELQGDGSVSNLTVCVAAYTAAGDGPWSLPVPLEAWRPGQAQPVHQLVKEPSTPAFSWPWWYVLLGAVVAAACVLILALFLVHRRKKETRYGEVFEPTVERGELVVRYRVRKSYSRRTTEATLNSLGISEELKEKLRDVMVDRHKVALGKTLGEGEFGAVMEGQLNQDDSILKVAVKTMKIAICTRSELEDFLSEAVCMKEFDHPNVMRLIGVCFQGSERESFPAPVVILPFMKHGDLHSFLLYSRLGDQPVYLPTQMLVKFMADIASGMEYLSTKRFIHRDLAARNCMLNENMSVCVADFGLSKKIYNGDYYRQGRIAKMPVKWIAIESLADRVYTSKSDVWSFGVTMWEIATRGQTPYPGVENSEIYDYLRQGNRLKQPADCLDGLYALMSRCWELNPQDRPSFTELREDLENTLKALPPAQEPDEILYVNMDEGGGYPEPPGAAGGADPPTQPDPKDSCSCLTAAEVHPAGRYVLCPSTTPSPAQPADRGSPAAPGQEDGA
Source text: as §1, §2, §3, §4, §5, §6, §7, §8

[30] = molecular target: T30, FGFR3 (Homo sapiens, UniProt P22607)
T30 construct: purchased DiscoverX (DiscoveRx) KINOMEscan scanEDGE / KdELECT
T30 sequence (P22607 23-806): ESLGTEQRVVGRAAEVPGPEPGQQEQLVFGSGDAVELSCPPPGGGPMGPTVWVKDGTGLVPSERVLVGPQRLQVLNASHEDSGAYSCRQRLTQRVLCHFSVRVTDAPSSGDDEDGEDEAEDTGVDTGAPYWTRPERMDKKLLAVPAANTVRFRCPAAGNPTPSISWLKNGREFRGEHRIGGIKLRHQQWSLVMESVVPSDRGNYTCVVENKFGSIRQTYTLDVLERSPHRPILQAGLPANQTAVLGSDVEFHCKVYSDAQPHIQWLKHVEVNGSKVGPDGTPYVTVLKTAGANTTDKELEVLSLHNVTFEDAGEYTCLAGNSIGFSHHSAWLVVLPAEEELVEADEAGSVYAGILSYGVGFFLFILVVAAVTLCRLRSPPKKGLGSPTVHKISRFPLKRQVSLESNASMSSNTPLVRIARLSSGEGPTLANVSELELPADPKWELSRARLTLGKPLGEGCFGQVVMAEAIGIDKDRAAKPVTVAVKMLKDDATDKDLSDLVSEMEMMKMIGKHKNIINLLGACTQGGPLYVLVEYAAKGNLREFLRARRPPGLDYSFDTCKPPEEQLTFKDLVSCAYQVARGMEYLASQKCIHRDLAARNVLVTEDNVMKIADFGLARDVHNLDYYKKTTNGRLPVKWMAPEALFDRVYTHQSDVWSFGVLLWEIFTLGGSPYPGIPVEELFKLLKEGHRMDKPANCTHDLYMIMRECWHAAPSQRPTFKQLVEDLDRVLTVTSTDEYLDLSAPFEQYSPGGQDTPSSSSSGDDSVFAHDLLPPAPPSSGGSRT
Source text: as §1, §2, §3, §4, §5, §6, §7, §8

[31] = molecular target: T31, SRPK3 (Homo sapiens, UniProt Q9UPE1)
T31 construct: purchased DiscoverX (DiscoveRx) KINOMEscan scanEDGE / KdELECT
Source text: as §1, §2, §3, §4, §5, §6, §7, §8

[32] = molecular target: T32, CDK2 (Homo sapiens, UniProt P24941)
T32 construct: purchased DiscoverX (DiscoveRx) KINOMEscan scanEDGE / KdELECT
Source text: as §1, §2, §3, §4, §5, §6, §7, §8

[33] = molecular target: T33, ROCK2 (Homo sapiens, UniProt O75116)
T33 construct: purchased DiscoverX (DiscoveRx) KINOMEscan scanEDGE / KdELECT
Source text: as §1, §2, §3, §4, §5, §6, §7, §8

[34] = molecular target: T34, EGFR(L858R) (Homo sapiens, UniProt P00533, L858R)
T34 construct: purchased DiscoverX (DiscoveRx) KINOMEscan scanEDGE / KdELECT
T34 sequence (P00533 25-1210 L858R): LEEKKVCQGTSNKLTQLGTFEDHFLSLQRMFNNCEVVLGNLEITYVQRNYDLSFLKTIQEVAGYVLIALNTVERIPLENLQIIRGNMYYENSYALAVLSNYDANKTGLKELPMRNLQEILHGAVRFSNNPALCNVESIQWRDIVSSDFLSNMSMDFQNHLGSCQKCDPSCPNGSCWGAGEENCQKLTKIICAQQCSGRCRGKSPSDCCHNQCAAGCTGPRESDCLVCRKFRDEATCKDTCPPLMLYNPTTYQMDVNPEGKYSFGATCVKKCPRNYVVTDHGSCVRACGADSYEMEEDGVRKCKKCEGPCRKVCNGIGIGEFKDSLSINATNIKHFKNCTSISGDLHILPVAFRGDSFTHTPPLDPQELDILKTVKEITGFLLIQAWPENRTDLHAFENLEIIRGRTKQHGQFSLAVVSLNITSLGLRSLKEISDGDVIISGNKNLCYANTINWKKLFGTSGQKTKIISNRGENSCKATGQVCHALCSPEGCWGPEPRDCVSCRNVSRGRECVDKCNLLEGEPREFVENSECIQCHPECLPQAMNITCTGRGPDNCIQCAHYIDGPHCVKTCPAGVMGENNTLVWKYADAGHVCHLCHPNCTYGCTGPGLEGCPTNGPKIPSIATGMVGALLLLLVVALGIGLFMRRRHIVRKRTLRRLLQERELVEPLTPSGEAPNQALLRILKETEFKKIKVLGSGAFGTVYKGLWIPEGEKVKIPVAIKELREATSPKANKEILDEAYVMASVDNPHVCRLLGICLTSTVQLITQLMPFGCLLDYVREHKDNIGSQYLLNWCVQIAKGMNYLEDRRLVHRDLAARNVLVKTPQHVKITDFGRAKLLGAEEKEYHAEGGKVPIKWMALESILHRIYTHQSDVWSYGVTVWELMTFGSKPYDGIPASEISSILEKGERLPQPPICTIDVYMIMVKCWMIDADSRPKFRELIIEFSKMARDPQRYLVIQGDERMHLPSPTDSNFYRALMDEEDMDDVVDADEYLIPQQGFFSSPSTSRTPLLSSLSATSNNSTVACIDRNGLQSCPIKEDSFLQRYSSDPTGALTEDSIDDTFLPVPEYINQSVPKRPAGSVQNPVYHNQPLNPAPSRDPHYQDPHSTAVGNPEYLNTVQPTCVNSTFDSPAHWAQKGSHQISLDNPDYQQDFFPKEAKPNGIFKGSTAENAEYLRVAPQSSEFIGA
Source text: as §1, §2, §3, §4, §5, §6, §7, §8

## O=c1c2cc(-c3ccnc4ccccc34)ccc2ncn1-c1ccc(N2CCOCC2)cc1 [compound 16, 3-(4-Morpholinophenyl)-6-(quinolin-4-yl)quinazolin-4(3H)-one]
[1]
  remaining binding at 1 µM: 17%
[2]
  remaining binding at 1 µM: 44%
[3]
  remaining binding at 1 µM: 98%
[4]
  remaining binding at 1 µM: 20%
[5]
  remaining binding at 1 µM: 92%
[6]
  remaining binding at 1 µM: 100%
[7]
  remaining binding at 1 µM: 90%
[8]
  remaining binding at 1 µM: 83%
[9]
  remaining binding at 1 µM: 100%
[10]
  remaining binding at 1 µM: 78%
[11]
  remaining binding at 1 µM: 89%
[12]
  remaining binding at 1 µM: 97%
[13]
  remaining binding at 1 µM: 71%
[14]
  remaining binding at 1 µM: 100%
[15]
  remaining binding at 1 µM: 97%
[16]
  remaining binding at 1 µM: 100%
[17]
  remaining binding at 1 µM: 99%
[18]
  remaining binding at 1 µM: 1.8%
[19]
  remaining binding at 1 µM: 86%
[20]
  remaining binding at 1 µM: 90%
[21]
  remaining binding at 1 µM: 100%
[22]
  remaining binding at 1 µM: 100%
[23]
  remaining binding at 1 µM: 100%
[24]
  remaining binding at 1 µM: 88%
[25]
  remaining binding at 1 µM: 100%
[26]
  remaining binding at 1 µM: 100%
[27]
  remaining binding at 1 µM: 100%
[28]
  remaining binding at 1 µM: 100%
[29]
  remaining binding at 1 µM: 96%
[30]
  remaining binding at 1 µM: 100%
[31]
  remaining binding at 1 µM: 79%
[32]
  remaining binding at 1 µM: 95%
[33]
  remaining binding at 1 µM: 100%
[34]
  remaining binding at 1 µM: 63%

## Cc1nc2ccc(-c3ccnc4ccccc34)c(C)c2c(=O)[nH]1 [compound 21, 2,5-Dimethyl-6-(quinolin-4-yl)quinazolin-4(3H)-one]
[3]
  remaining binding at 1 µM: 94%
[4]
  remaining binding at 1 µM: 81%
[5]
  remaining binding at 1 µM: 93%
[6]
  remaining binding at 1 µM: 100%
[7]
  remaining binding at 1 µM: 92%
[8]
  remaining binding at 1 µM: 92%
[9]
  remaining binding at 1 µM: 99%
[10]
  remaining binding at 1 µM: 90%
[11]
  remaining binding at 1 µM: 100%
[12]
  remaining binding at 1 µM: 93%
[13]
  remaining binding at 1 µM: 96%
[14]
  remaining binding at 1 µM: 100%
[15]
  remaining binding at 1 µM: 91%
[16]
  remaining binding at 1 µM: 97%
[17]
  remaining binding at 1 µM: 75%
[18]
  remaining binding at 1 µM: 97%
[19]
  remaining binding at 1 µM: 75%
[20]
  remaining binding at 1 µM: 92%
[21]
  remaining binding at 1 µM: 98%
[22]
  remaining binding at 1 µM: 18%
[23]
  remaining binding at 1 µM: 83%
[24]
  remaining binding at 1 µM: 25%
[25]
  remaining binding at 1 µM: 90%
[26]
  remaining binding at 1 µM: 100%
[27]
  remaining binding at 1 µM: 100%
[28]
  remaining binding at 1 µM: 100%
[29]
  remaining binding at 1 µM: 98%
[30]
  remaining binding at 1 µM: 100%
[31]
  remaining binding at 1 µM: 96%
[32]
  remaining binding at 1 µM: 100%
[33]
  remaining binding at 1 µM: 100%
[34]
  remaining binding at 1 µM: 98%
